Results from US10844077B2, “Thiazolyl-containing compounds for treating proliferative diseases” (Dana-Farber Cancer Institute, Inc., priority 2014, dated 2020).
Where “and” joins values, the source holds several entries; their conditions need not be identical. Equal entries are not always repeated.

Test system: PI4KA, PI4KAP2
Assay: KINATIV assay
Type: cell-based
Settings: 1 μM, 90 minutes, BCWM.1 cells
In short: (§1)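 Duplicate compound samples were compared with duplicate or quadruplicate controls. After harvesting and lysis, cells' lysates were probe-labeled (ATP-biotin), and kinase labeling was quantitated by ACTIVX.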

Structure (SMILES)	% change of MS signal compared to control sample
C=CC(=O)N1CC[C@@H](Nc2nccc(Nc3ncc(C(=O)Nc4c(C)cccc4C)s3)n2)C1 [Example I-4]	−37.7%

Biological target: CK1g2 (Homo sapiens (Human), UniProt P78368)
Assay: KINATIV assay
Type: cell-based
Settings: 1 μM, 90 minutes, BCWM.1 cells
In short: as §1

Chain of CK1g2 (P78368 whole entry): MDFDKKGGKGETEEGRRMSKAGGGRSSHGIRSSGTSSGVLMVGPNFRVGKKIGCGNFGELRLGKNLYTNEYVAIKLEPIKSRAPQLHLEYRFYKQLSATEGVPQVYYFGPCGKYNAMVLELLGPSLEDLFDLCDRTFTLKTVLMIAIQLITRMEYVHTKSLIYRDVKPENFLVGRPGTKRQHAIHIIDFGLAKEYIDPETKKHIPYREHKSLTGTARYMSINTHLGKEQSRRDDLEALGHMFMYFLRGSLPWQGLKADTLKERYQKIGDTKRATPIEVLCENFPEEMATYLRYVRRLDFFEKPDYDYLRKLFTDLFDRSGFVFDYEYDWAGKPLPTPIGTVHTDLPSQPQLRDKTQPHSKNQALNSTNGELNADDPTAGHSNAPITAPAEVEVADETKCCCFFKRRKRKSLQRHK

Structure (SMILES)	% change of MS signal compared to control sample
C=CC(=O)N1CC[C@@H](Nc2nccc(Nc3ncc(C(=O)Nc4c(C)cccc4C)s3)n2)C1 [Example I-4]	−4.5%

Biological target: TEC (Homo sapiens (Human), UniProt P42680)
Assay: KINATIV assay
Type: cell-based
Settings: 1 μM, 90 minutes, BCWM.1 cells
In short: as §1

Chain of TEC (P42680 whole entry): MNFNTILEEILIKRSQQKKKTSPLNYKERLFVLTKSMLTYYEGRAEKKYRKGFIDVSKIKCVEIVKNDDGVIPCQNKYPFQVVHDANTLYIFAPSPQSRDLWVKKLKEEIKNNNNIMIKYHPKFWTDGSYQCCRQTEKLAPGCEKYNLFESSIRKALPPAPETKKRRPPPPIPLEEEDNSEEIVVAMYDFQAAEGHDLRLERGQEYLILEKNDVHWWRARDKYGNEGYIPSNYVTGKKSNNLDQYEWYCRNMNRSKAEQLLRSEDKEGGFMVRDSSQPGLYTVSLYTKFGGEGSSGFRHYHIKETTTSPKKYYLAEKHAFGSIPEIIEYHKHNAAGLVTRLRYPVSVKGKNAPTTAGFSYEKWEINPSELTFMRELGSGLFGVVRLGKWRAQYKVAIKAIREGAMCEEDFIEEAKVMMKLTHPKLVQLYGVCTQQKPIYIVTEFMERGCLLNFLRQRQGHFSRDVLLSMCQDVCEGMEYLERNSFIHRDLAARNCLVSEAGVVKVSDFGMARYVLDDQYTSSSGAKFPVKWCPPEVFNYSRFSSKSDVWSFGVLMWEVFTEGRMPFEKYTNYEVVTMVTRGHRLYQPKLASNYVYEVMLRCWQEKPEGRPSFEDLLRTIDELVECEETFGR

Structure (SMILES)	% change of MS signal compared to control sample
C=CC(=O)N1CC[C@@H](Nc2nccc(Nc3ncc(C(=O)Nc4c(C)cccc4C)s3)n2)C1 [Example I-4]	68.7% and 73.7%

Biological target: RSK3 (Homo sapiens (Human), UniProt Q15349)
Assay: KINATIV assay
Type: cell-based
Settings: 1 μM, 90 minutes, BCWM.1 cells
In short: as §1

Chain of RSK3 (Q15349 whole entry): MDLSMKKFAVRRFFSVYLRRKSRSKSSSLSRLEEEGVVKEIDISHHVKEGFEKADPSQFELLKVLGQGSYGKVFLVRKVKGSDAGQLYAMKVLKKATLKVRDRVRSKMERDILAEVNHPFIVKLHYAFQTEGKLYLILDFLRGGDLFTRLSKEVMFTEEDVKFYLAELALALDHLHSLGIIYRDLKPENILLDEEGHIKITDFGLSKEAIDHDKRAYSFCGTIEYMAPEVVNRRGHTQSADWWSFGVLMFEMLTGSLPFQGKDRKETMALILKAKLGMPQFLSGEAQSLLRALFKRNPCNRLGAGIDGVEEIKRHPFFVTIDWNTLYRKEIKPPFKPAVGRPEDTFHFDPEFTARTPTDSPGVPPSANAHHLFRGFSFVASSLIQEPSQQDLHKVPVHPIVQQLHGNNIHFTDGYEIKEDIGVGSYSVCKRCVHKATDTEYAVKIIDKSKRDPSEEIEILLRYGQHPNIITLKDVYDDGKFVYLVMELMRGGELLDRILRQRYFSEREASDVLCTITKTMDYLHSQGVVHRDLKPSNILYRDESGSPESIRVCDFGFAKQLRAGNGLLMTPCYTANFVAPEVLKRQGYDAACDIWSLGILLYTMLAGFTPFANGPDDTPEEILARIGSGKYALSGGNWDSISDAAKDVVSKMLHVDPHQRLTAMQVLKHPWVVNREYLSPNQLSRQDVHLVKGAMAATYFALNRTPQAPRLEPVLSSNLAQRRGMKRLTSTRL

Structure (SMILES)	% change of MS signal compared to control sample
C=CC(=O)N1CC[C@@H](Nc2nccc(Nc3ncc(C(=O)Nc4c(C)cccc4C)s3)n2)C1 [Example I-4]	16.8%

Biological target: YSK1 (Homo sapiens (Human), UniProt O00506)
Assay: KINATIV assay
Type: cell-based
Settings: 1 μM, 90 minutes, BCWM.1 cells
In short: as §1

Chain of YSK1 (O00506 whole entry): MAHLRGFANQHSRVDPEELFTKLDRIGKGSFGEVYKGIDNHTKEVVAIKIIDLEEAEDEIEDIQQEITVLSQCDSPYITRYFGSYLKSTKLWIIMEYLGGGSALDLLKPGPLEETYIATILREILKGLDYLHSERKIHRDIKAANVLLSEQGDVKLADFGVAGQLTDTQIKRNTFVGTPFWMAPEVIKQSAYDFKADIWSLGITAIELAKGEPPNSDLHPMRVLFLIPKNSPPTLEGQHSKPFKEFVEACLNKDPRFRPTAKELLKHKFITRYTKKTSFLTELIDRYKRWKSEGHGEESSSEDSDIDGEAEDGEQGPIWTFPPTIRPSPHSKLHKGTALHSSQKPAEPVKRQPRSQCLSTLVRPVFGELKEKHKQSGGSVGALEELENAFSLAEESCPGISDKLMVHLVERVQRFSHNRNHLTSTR

Structure (SMILES)	% change of MS signal compared to control sample
C=CC(=O)N1CC[C@@H](Nc2nccc(Nc3ncc(C(=O)Nc4c(C)cccc4C)s3)n2)C1 [Example I-4]	−58.5%

Biological target: MSK1 domain1 (Homo sapiens (Human), UniProt O75582)
Assay: KINATIV assay
Type: cell-based
Settings: 1 μM, 90 minutes, BCWM.1 cells
In short: as §1

Structure (SMILES)	% change of MS signal compared to control sample
C=CC(=O)N1CC[C@@H](Nc2nccc(Nc3ncc(C(=O)Nc4c(C)cccc4C)s3)n2)C1 [Example I-4]	−15.8%

Biological target: PYK2 (Homo sapiens (Human), UniProt Q14289)
Assay: KINATIV assay
Type: cell-based
Settings: 1 μM, 90 minutes, BCWM.1 cells
In short: as §1

Chain of PYK2 (Q14289 whole entry): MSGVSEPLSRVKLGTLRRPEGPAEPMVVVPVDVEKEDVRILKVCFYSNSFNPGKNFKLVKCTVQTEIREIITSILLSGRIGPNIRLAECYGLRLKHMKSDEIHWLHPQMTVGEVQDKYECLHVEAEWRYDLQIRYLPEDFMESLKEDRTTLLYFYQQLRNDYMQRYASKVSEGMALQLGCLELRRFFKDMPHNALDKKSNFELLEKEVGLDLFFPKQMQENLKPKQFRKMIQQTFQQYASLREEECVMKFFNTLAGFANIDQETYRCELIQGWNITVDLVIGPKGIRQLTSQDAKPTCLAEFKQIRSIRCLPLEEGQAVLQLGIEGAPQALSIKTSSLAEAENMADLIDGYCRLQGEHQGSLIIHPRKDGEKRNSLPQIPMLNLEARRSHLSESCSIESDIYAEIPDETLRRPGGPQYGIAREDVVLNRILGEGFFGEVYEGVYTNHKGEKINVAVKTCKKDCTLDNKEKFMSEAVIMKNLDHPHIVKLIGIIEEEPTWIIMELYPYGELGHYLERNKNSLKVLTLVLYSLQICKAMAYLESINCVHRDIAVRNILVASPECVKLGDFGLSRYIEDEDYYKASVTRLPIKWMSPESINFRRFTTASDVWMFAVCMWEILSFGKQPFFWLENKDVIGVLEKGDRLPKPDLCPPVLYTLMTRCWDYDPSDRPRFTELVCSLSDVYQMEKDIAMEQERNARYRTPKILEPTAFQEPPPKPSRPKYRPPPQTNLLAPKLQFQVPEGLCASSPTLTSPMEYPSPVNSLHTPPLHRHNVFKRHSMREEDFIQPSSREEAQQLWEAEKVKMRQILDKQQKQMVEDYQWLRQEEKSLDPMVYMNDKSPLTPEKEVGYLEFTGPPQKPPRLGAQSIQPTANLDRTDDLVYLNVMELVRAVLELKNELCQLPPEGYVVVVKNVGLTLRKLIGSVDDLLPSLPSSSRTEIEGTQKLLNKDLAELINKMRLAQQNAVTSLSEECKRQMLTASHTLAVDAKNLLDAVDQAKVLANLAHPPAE

Structure (SMILES)	% change of MS signal compared to control sample
C=CC(=O)N1CC[C@@H](Nc2nccc(Nc3ncc(C(=O)Nc4c(C)cccc4C)s3)n2)C1 [Example I-4]	27.3%

Biological target: MAP3K5 (Homo sapiens (Human), UniProt Q99683)
Assay: KINATIV assay
Type: cell-based
Settings: 1 μM, 90 minutes, BCWM.1 cells
In short: as §1

Structure (SMILES)	% change of MS signal compared to control sample
C=CC(=O)N1CC[C@@H](Nc2nccc(Nc3ncc(C(=O)Nc4c(C)cccc4C)s3)n2)C1 [Example I-4]	−10.7%

Biological target: NEK7 (Homo sapiens (Human), UniProt Q8TDX7)
Assay: KINATIV assay
Type: cell-based
Settings: 1 μM, 90 minutes, BCWM.1 cells
In short: as §1

Chain of NEK7 (Q8TDX7 whole entry): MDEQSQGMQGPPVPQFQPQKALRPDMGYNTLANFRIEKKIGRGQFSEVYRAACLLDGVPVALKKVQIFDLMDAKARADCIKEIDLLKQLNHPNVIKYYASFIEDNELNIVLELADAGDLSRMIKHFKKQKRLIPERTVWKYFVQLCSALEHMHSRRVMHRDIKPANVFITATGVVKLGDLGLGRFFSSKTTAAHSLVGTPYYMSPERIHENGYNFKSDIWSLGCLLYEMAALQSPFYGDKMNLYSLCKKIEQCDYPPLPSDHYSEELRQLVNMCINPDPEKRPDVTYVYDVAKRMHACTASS

Structure (SMILES)	% change of MS signal compared to control sample
C=CC(=O)N1CC[C@@H](Nc2nccc(Nc3ncc(C(=O)Nc4c(C)cccc4C)s3)n2)C1 [Example I-4]	−7.7%

Biological target: PIK3C2B (Homo sapiens (Human), UniProt O00750)
Assay: KINATIV assay
Type: cell-based
Settings: 1 μM, 90 minutes, BCWM.1 cells
In short: as §1

Structure (SMILES)	% change of MS signal compared to control sample
C=CC(=O)N1CC[C@@H](Nc2nccc(Nc3ncc(C(=O)Nc4c(C)cccc4C)s3)n2)C1 [Example I-4]	−5.8%

Test system: Wnk1, Wnk2
Assay: KINATIV assay
Type: cell-based
Settings: 1 μM, 90 minutes, BCWM.1 cells
In short: as §1

Structure (SMILES)	% change of MS signal compared to control sample
C=CC(=O)N1CC[C@@H](Nc2nccc(Nc3ncc(C(=O)Nc4c(C)cccc4C)s3)n2)C1 [Example I-4]	7.8%

Biological target: LRRK2 (Homo sapiens (Human), UniProt Q5S007)
Assay: KINATIV assay
Type: cell-based
Settings: 1 μM, 90 minutes, BCWM.1 cells
In short: as §1

Structure (SMILES)	% change of MS signal compared to control sample
C=CC(=O)N1CC[C@@H](Nc2nccc(Nc3ncc(C(=O)Nc4c(C)cccc4C)s3)n2)C1 [Example I-4]	−5.7%

Test system: AurA, AurB, AurC
Assay: KINATIV assay
Type: cell-based
Settings: 1 μM, 90 minutes, BCWM.1 cells
In short: as §1

Structure (SMILES)	% change of MS signal compared to control sample
C=CC(=O)N1CC[C@@H](Nc2nccc(Nc3ncc(C(=O)Nc4c(C)cccc4C)s3)n2)C1 [Example I-4]	2.3%

Biological target: OSR1 (Homo sapiens (Human), UniProt O95747)
Assay: KINATIV assay
Type: cell-based
Settings: 1 μM, 90 minutes, BCWM.1 cells
In short: as §1

Structure (SMILES)	% change of MS signal compared to control sample
C=CC(=O)N1CC[C@@H](Nc2nccc(Nc3ncc(C(=O)Nc4c(C)cccc4C)s3)n2)C1 [Example I-4]	26.7%

Test system: MST4, YSK1
Assay: KINATIV assay
Type: cell-based
Settings: 1 μM, 90 minutes, BCWM.1 cells
In short: as §1

Structure (SMILES)	% change of MS signal compared to control sample
C=CC(=O)N1CC[C@@H](Nc2nccc(Nc3ncc(C(=O)Nc4c(C)cccc4C)s3)n2)C1 [Example I-4]	20.5%

Biological target: CaMK1d (Homo sapiens (Human), UniProt Q8IU85)
Assay: KINATIV assay
Type: cell-based
Settings: 1 μM, 90 minutes, BCWM.1 cells
In short: as §1

Chain of CaMK1d (Q8IU85 whole entry): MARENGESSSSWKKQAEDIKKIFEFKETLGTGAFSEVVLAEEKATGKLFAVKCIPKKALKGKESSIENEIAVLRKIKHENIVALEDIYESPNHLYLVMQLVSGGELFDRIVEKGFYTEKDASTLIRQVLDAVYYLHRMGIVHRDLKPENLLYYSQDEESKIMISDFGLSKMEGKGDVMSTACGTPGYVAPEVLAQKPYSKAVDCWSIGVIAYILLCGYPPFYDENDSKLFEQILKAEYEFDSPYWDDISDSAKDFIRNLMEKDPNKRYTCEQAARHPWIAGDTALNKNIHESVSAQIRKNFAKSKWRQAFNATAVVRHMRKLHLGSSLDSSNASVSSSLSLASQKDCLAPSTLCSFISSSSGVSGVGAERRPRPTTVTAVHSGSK

Structure (SMILES)	% change of MS signal compared to control sample
C=CC(=O)N1CC[C@@H](Nc2nccc(Nc3ncc(C(=O)Nc4c(C)cccc4C)s3)n2)C1 [Example I-4]	−12.5% and −4.0%

Test system: IKKe, TBK1
Assay: KINATIV assay
Type: cell-based
Settings: 1 μM, 90 minutes, BCWM.1 cells
In short: as §1

Structure (SMILES)	% change of MS signal compared to control sample
C=CC(=O)N1CC[C@@H](Nc2nccc(Nc3ncc(C(=O)Nc4c(C)cccc4C)s3)n2)C1 [Example I-4]	−38.7%

Biological target: MST4 (Homo sapiens (Human), UniProt Q9P289)
Assay: KINATIV assay
Type: cell-based
Settings: 1 μM, 90 minutes, BCWM.1 cells
In short: as §1

Chain of MST4 (Q9P289 whole entry): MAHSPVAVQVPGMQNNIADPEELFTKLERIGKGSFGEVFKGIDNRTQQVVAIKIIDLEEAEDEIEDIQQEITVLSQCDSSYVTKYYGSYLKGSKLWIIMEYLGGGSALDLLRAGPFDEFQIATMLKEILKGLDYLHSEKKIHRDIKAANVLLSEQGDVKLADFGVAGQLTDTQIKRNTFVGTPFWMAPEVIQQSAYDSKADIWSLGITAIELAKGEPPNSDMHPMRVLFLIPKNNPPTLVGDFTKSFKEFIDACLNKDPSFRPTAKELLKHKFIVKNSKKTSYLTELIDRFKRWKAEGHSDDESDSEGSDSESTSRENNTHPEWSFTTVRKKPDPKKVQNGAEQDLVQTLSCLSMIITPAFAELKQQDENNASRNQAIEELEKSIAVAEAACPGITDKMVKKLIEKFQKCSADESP

Structure (SMILES)	% change of MS signal compared to control sample
C=CC(=O)N1CC[C@@H](Nc2nccc(Nc3ncc(C(=O)Nc4c(C)cccc4C)s3)n2)C1 [Example I-4]	−13.2%

Test system: Wnk1, Wnk2, Wnk4
Assay: KINATIV assay
Type: cell-based
Settings: 1 μM, 90 minutes, BCWM.1 cells
In short: as §1

Structure (SMILES)	% change of MS signal compared to control sample
C=CC(=O)N1CC[C@@H](Nc2nccc(Nc3ncc(C(=O)Nc4c(C)cccc4C)s3)n2)C1 [Example I-4]	−0.5%

Biological target: FRK (Homo sapiens (Human), UniProt P42685)
Assay: KINATIV assay
Type: cell-based
Settings: 1 μM, 90 minutes, BCWM.1 cells
In short: as §1

Chain of FRK (P42685 whole entry): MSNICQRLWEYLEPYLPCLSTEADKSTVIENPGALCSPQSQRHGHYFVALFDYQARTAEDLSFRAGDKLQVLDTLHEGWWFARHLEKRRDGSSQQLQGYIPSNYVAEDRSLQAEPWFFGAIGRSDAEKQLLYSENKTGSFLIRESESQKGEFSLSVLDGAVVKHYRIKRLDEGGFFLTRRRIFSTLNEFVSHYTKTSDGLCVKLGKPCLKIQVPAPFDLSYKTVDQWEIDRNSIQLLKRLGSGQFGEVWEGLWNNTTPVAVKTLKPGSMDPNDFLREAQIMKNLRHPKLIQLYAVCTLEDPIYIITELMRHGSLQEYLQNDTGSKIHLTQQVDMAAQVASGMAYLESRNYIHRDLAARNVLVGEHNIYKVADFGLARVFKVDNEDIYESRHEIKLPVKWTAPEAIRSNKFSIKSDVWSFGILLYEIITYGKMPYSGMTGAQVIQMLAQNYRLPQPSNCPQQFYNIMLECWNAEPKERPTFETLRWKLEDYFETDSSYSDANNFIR

Structure (SMILES)	% change of MS signal compared to control sample
C=CC(=O)N1CC[C@@H](Nc2nccc(Nc3ncc(C(=O)Nc4c(C)cccc4C)s3)n2)C1 [Example I-4]	87.5%

Test system: FYN, SRC, YES
Assay: KINATIV assay
Type: cell-based
Settings: 1 μM, 90 minutes, BCWM.1 cells
In short: as §1

Structure (SMILES)	% change of MS signal compared to control sample
C=CC(=O)N1CC[C@@H](Nc2nccc(Nc3ncc(C(=O)Nc4c(C)cccc4C)s3)n2)C1 [Example I-4]	97.4%
